In brackets after ≈: the same amount, converted by molar mass. Where a SMILES comes first, the peptide text is derived from it.
Legend:
[1] = system: human epitheloid cervix carcinoma HeLa; experiment: cells; format: cell-based; details: 48 h
Protocol: (§1) Human hepatocellular carcinoma HepG2, human breast carcinoma MCF-7, human epitheloid cervix carcinoma HeLa, human breast carcinoma MB-MDA-231 cell lines, and a normal human umbilical vein endothelial cell line (HUVECs) were obtained from the China Cell Bank of the Institute of Biochemistry and were cultured in a DMEM culture medium (DMEM, Corning, NY, USA) containing 10% fetal bovine serum (FBS, Hyclone, Logan, UT, USA), 1% penicillin-streptomycin, and an antifungal agent in a 5% CO2-humidified atmosphere at 37°C. The culture medium was replaced once in a day. Trypsin digestion method was adopted for cell propagation. Upon reaching 80–90% confluence, the cells were rinsed twice with PBS. A certain amount of 0.25% trypsin digestion solution was then added and maintained for 3–5 min at 37°C. Afterward, DMEM culture medium containing 10% fetal bovine serum was added to terminate the digestion. The cells were then blown well to form single-cell suspensions.
(§2) The cell viability was determined by measuring the ability of cells to transform MTT (3-(4,5-dimethylthiazol-2-yl)-2,5-diphenyltetrazolium bromide) (GENView, Houston, TX, USA) to a purple formazan dye. The cells were seeded in 96-well cell culture plates at 2.5 × 10^3 cells/well for 24 h. The cells were then incubated with galaxamide and its analogues for 48 h. After incubation, 20 μL/well of MTT solution (5 mg/mL phosphate buffered saline) was added and incubated for 5 h. The medium was aspirated and replaced with 100 μL/well of DMSO to dissolve the formazan salt. The color intensity of the formazan solution, which reflects the cell growth condition, was measured at 570 nm using a microplate spectrophotometer (SpectroAma™ 250, Winooski, VT, USA).

[2] = system: human breast carcinoma MCF-7; experiment: cells; format: cell-based
Protocol: as §1, §2

[3] = system: human breast carcinoma MB-MDA-231; experiment: cells; format: cell-based; details: 48 h
Protocol: as §1, §2

[4] = system: human hepatocellular carcinoma HepG2; experiment: cells; format: cell-based; details: 48 h
Protocol: as §1, §2

MCF-7 cells [5] = experiment: Mitochondrial membrane potential, JC-1 staining, flow cytometry; format: cell-based, human; details: MCF-7, 2.5, 5.0 and 10.0 μg/mL, 48 h
Protocol: The cell suspension (2 mL) with a concentration of 1 × 10^5 cells/mL was inoculated per well in 6-well plates for 12 h. After 48 h of incubation with galaxamide and representative compound at the concentration of 0, 2.5, 5, and 10 μg/mL, the supernatant was aspirated and the cells were washed twice with PBS and digested with 0.25% trypsin. The cells were suspended by pipetting, followed by centrifugation (1000 rpm, 5 min). The supernatant was aspirated and the cells were washed with PBS and centrifuged again to obtain a cell pellet. The cells were resuspended by adding and thoroughly mixing 500 μL of PBS in a microcentrifuge tube. Finally, the samples were stained with JC-1 (5,5′,6,6′-tetrachloro-1,1′,3,3′-tetraethylbenzimi-dazolylcarbocyanine iodide) and incubated in darkness at 37°C for 15 min. After the treatment, the cells were detected by flow cytometry.

MCF-7 cells [6] = experiment: Annexin V-FITC/PI apoptosis, flow cytometry; format: cell-based, human; details: MCF-7, 2.5, 5 and 10 μg/mL, 48 h
Protocol: The apoptotic cells were quantified using an Annexin V-FITC (fluorescein isothiocyanate) (Sigma-Aldrich, St. Louis, MO, USA) cell apoptosis assay kit according to the instruction provided with the kit. In brief, about 1.5 × 10^5 cells were plated in 6-well plates and treated with galaxamide and representative compound (0, 2.5, 5, and 10 μg/mL) for 48 h. The cells were resuspended in […] binding buffer. Afterwards, […] was added and then incubated in darkness at room temperature for 10 min. The cells were again resuspended in […] binding buffer and stained with […] (propidium iodide). The prepared cells were then analyzed using a flow cytometry (Coulter Epics Elite, Miami, FL, USA). The cells in the FITC-positive and PI-negative fractions were regarded as apoptotic cells.

MCF-7 cells [7] = experiment: Cell cycle analysis by PI staining, flow cytometry; format: cell-based, human; details: MCF-7, 2.5, 5.0 and 10.0 μg/mL, 48 h
Protocol: MCF-7 cells with the density of about 1.5 × 10^5 were incubated with galaxamide and representative analogue (0, 2.5, 5, and 10 μg/mL) for 48 h. Afterwards, collected cells were washed twice with PBS and centrifugation (1000 rpm, 5 min), then fixed using 70% ethanol for 12 h at 4°C. Ethanol was removed by centrifugation (2000 rpm, 5 min), and the cells were washed twice with PBS. Cells were then resuspended in […] and kept at 37°C for 15 min. The cell cycle was analyzed by flow cytometry measuring the amount of PI-labeled DNA in fixed cells.

[8] = system: normal human umbilical vein endothelial cell line (HUVECs); format: cell-based; details: 48 h
Protocol: as §1, §2

MCF-7 cells [9] = experiment: Intracellular ROS assay, DCFH-DA, flow cytometry; format: cell-based, human; details: MCF-7, 2.5, 5.0 and 10.0 μg/mL, 48 h
Protocol: Two milliliters of cell suspension with a cell concentration of 1 × 10^5 cells/mL was inoculated per well in 6-well plates. After synchronization, the cells were incubated with galaxamide and representative analogue (0, 2.5, 5, and 10 μg/mL) for 48 h. Afterwards, the supernatant was aspirated and the cells were washed twice with PBS and digested with 0.25% trypsin. Then, DMEM supplemented with 10% fetal bovine serum was added to terminate digestion. The cells were suspended by pipetting, followed by centrifugation (1000 rpm, 5 min). The supernatant was aspirated and the cells were washed once with PBS and centrifuged again to obtain a cell pellet. The cells were resuspended by adding and thoroughly mixing […] in a microcentrifuge tube. The samples were then stained with DCFH-DA ([…]) and analyzed by flow cytometry.

[10] = from Table 1 IC50 values (fits MCF-7)

Row | IC50 (μg/mL) values in various cell lines, HeLa [1] | IC50 (μg/mL) values in various cell lines, MCF-7 ([2]; 48 h) | IC50 (μg/mL) values in various cell lines, MD-MBA-231 [3] | IC50 (μg/mL) values in various cell lines, HepG2 [4] | SMILES | JC-1 fluorescence ratio (red/green), MMP (MCF-7 cells [5]) | IC50 (μg/mL) values in various cell lines, HUVECs [8] | intracellular ROS (MCF-7 cells [9]) | other results
1 |  |  |  |  | COc1cccc2c1C(=O)c1c(O)c3c(c(O)c1C2=O)C[C@@](O)(C(=O)CO)C[C@@H]3O[C@H]1C[C@H](N)[C@H](O)[C@H](C)O1 [Doxorubicin, reference compound] |  |  |  | IC50 ([1]; Homo sapiens, HeLa, MTT, mean ± SD of three experiments, read-out: IC50 (μg/mL) values in various cell lines, HeLa): 0.32 ± 0.22 µg/mL (≈ 0.589 µM); IC50 ([2]; Homo sapiens, MCF7, MCF-7, MTT, 48 h, mean ± SD of three experiments, read-out: IC50 (μg/mL) values in various cell lines, MCF-7): 0.5 ± 0.48 µg/mL (≈ 0.92 µM); IC50 ([3]; Homo sapiens, MD-MBA-231, MTT, mean ± SD of three experiments, read-out: IC50 (μg/mL) values in various cell lines, MD-MBA-231): 1.29 ± 0.57 µg/mL (≈ 2.37 µM); IC50 ([4]; Homo sapiens, HepG2, MTT, mean ± SD of three experiments, read-out: IC50 (μg/mL) values in various cell lines, HepG2): 2.27 ± 0.24 µg/mL (≈ 4.18 µM)
2 | 5.32 ± 0.42 µg/mL (≈ 7.98 µM) | 1.72 ± 0.85 µg/mL (≈ 2.58 µM) | 3.51 ± 1.32 µg/mL (≈ 5.26 µM) | 3.98 ± 0.71 µg/mL (≈ 5.97 µM) | CC(C)C[C@@H]1NC(=O)[C@H](CC(C)C)N(C)C(=O)[C@H](Cc2c[nH]c3ccccc23)NC(=O)[C@H](CC(C)C)N(C)C(=O)[C@H](CC(C)C)NC1=O [Compound 3, cyclo(Trp-N-Me-Leu-Leu-Leu-N-Me-Leu)] (HELM PEPTIDE1{L.L.[meL].W.[meL]}$PEPTIDE1,PEPTIDE1,1:R1-5:R2$$$V2.0) | reduced dose dependently | >40 µg/mL | induced ROS in a dose-dependent manner | induction of apoptosis (MCF-7 cells [6]): significantly induced the apoptosis of human breast cancer MCF-7 cells in a dose-dependent manner; cell cycle arrest (MCF-7 cells [7]): induced a significant G1 phase arrest of cell cycle progression in a dose-dependent manner; cytotoxicity relative to parent structure galaxamide [2]: almost sixfold higher cytotoxicity; fold less active than doxorubicin [2, 10]: 3.44 fold; fold more active than anticancer drug DPP [2, 10]: 8.49 fold
3 |  |  |  |  | N.N.[Cl][Pt][Cl] [DPP, reference compound] |  |  |  | IC50 (μg/mL) values in various cell lines, HeLa ([1]; HeLa, MTT, mean ± SD of three experiments): 8.90 ± 0.89 µg/mL; IC50 (μg/mL) values in various cell lines, MCF-7 ([2]; MCF-7, MTT, 48 h, mean ± SD of three experiments): 14.61 ± 2.01 µg/mL; IC50 (μg/mL) values in various cell lines, MD-MBA-231 ([3]; MD-MBA-231, MTT, mean ± SD of three experiments): 13.75 ± 0.56 µg/mL; IC50 (μg/mL) values in various cell lines, HepG2 ([4]; HepG2, MTT, mean ± SD of three experiments): 10.43 ± 1.23 µg/mL
4 | 13.22 ± 1.12 µg/mL (≈ 21.1 µM) | 4.76 ± 1.36 µg/mL (≈ 7.58 µM) | 5.83 ± 0.45 µg/mL (≈ 9.29 µM) | 6.25 ± 1.03 µg/mL (≈ 9.95 µM) | CC(C)C[C@@H]1NC(=O)[C@H](CC(C)C)N(C)C(=O)[C@H](Cc2ccccc2)NC(=O)[C@H](CC(C)C)N(C)C(=O)[C@H](CC(C)C)NC1=O [Compound 1, cyclo(Phe-N-Me-Leu-Leu-Leu-N-Me-Leu)] |  | >40 µg/mL |  | 
5 |  |  |  |  | CC(C)C[C@@H]1NC(=O)[C@H](CC(C)C)N(C)C(=O)[C@H](CC(C)C)NC(=O)[C@H](CC(C)C)N(C)C(=O)[C@H](CC(C)C)NC1=O [Galaxamide, galaxamide] (HELM PEPTIDE1{L.L.[meL].L.[meL]}$PEPTIDE1,PEPTIDE1,1:R1-5:R2$$$V2.0) | reduced dose dependently |  | induced ROS in a dose-dependent manner | 
6 |  | 3.16 ± 0.92 µg/mL (≈ 4.66 µM) | 4.48 ± 2.24 µg/mL (≈ 6.61 µM) | 8.42 ± 1.82 µg/mL (≈ 12.4 µM) | CC(C)C[C@@H]1NC(=O)[C@H](CC(C)C)N(C)C(=O)[C@H](Cc2ccc3ccccc3c2)NC(=O)[C@H](CC(C)C)N(C)C(=O)[C@H](CC(C)C)NC1=O [Compound 2, cyclo(Nal-N-Me-Leu-Leu-Leu-N-Me-Leu)] (HELM PEPTIDE1{[O=C([C@H](Cc1ccc2ccccc2c1)N[*:1])[*:2]].[meL].L.L.[meL]}$PEPTIDE1,PEPTIDE1,1:R1-5:R2$$$V2.0) |  | >40 µg/mL |  | 

From paper PMC5749289, “Cytotoxicity Study of Cyclopentapeptide Analogues of Marine Natural Product Galaxamide towards Human Breast Cancer Cells” (Oxidative Medicine and Cellular Longevity, 2017)
